# Test results as given in US12357603B2, “Acyl sulfonamides for treating cancer” (Bayer Aktiengesellschaft, priority 2019, dated 2025).
# Read-outs that look alike come from different tables or passages of the source.
# How the values were obtained:
# [1] = target: Recombinant human His-tagged Kat6a protein (amino acids 194-810) (Homo sapiens (Human), UniProt Q92794); experiment: Kat6a activity assay (TR-FRET, acetylation of biotinylated Histone-H4-derived peptide); format: biochemical; settings: 60 mins at 22° C., read-out: KAT6A-DPF/HAT domain IC50 [mol/l] (arithmetic mean)
# Summary of the method: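 TR-FRET read-out of H4 K8 acetylation, using anti-acetyl-K8 antibody and streptavidin acceptor, after anacardic acid stop; IC50 from four-parameter regression normalized to DMSO. Reaction: recombinant human Kat6a aa 194-810 (insect-cell derived), 220 nM H4 1-24 peptide, 600 nM acetyl-CoA, pH 8, 22 °C, 60 min, compounds 0.01-20 μM.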
# [2] = target: Recombinant human GST-tagged Kat6b protein (431-end); experiment: Kat6b activity assay (TR-FRET, acetylation of biotinylated Histone-H4-derived peptide); format: biochemical; settings: 30 mins at 22° C., read-out: KAT6B activity assay IC50 [mol/l] (arithmetic mean)
# Procedure: Kat6b inhibitory activities of the compounds described in the present invention were quantified using a Fluorescence Resonance Energy Transfer (TR-FRET) assay which measures acetylation of a synthetic, biotinylated Histone-H4-derived peptide by the enzyme.
# In this case 50 nl DMSO were used instead of compounds. […] IC50 values were determined by regression analysis based on a 4 parameter equation (minimum, maximum, ICM, Hill; Y=Max+(Min−Max)/(1+(X/ICso) Hill) using the Screener Software (Genedata).
# [3] = test system: ESR1 transcription (luciferase signal in MVLN cells); experiment: Repression of ESR1 transcription, luciferase reporter in MVLN cells; format: cell-based; settings: inhibition of luciferase signal in MVLN cells, arithmetic mean
# Summary of the method: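 Luminescence from an ER-driven Vitellogenin A2 element–luciferase reporter was measured after 24 h of treatment of MVLN cells, in duplicate wells. Alamar Blue (2 h, 530/590 nm) served as a cell-density control.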
# [4] = test system: ZR-75-1 cells; experiment: Proliferation assay ZR-75-1 (Alamar Blue, 144 h); format: cell-based; settings: arithmetic mean, read-out: ZR75-1 proliferation assay, EC50 [M] (arithmetic mean)
# Summary of the method: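 Alamar Blue fluorescence (590 nm, 2 h reagent step) measured viability after 144 h compound exposure at 37 °C, 5% CO2. Compounds spanned 2.0×10E-5 to 2.0×10E-9 M in 9 dilutions at 0.2% DMSO, in triplicate, added 24 h after plating 3000 cells/well in RPMI 1640 plus 2.5% FBS.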
# [5] = test system: MDA-MB-436 cells; experiment: Proliferation assay MDA-MB-436, negative control cell line (Alamar Blue, 144 h); format: cell-based; settings: arithmetic mean
# Summary of the method: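 Viability read as Alamar Blue fluorescence (590 nm, 2 h) after 144 h compound exposure at 37 °C, 5% CO2. Cells seeded at 3000 per well in 2.5% FBS DMEM/Ham's F12, dosed a day later over 2.0×10E-9–2.0×10E-5 M in 9 steps with 0.2% DMSO, in triplicate.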
# [6] = Homo sapiens, MDA-MB-436, 144 h
# Recombinant human His-tagged Kat6a protein (amino acids 194-810), sequence (Q92794 194-810): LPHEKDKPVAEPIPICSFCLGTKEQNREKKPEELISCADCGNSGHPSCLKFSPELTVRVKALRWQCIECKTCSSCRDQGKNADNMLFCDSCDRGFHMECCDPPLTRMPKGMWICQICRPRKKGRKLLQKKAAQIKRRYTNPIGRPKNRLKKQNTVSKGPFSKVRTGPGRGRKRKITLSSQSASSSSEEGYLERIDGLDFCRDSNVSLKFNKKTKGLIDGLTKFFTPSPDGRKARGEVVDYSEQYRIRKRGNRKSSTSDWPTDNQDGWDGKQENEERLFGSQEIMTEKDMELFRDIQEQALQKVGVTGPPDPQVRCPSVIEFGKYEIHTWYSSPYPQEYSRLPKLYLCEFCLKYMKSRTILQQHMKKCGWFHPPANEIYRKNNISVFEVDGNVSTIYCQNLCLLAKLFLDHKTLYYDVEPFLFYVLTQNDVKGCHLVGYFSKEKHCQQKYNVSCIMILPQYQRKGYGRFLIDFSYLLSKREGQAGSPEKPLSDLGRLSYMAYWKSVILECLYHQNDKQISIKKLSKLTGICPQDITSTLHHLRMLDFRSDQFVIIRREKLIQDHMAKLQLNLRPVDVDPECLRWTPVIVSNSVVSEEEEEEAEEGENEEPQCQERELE
SMILES,IC50 [1] [nM],IC50 [2] [nM],"IC50 ([3]; Homo sapiens, MVLN) [nM]","EC50 [5, 6] [nM]",IC50 [3] [nM],EC50 [5] [nM],"EC50 ([4]; Homo sapiens, ZR-75-1, 144 h) [M]",EC50 [4] [M]
"CCN(C)c1ccc2cc(C(=O)NS(=O)(=O)c3ccccc3-c3ccccc3)oc2c1 [Example 1, 6-[Ethyl(methyl)amino]-N-(2-phenylphenyl)sulfonyl-benzofuran-2-carboxamide]",599,836,1840,> 20000,,,8.93e-07,
"CCN(C)c1ccc2cc(C(=O)NS(=O)(=O)c3ccccc3)oc2c1 [Example 2, N-(Benzenesulfonyl)-6-[ethyl(methyl)amino]benzofuran-2-carboxamide]",4800,5700,3500,> 20000,,,1.08e-05,
"CCN(C)c1ccc2cc(C(=O)NS(=O)(=O)c3ccccc3Cl)oc2c1 [Example 4, N-(2-Chlorophenyl)sulfonyl-6-[ethyl(methyl)amino]benzofuran-2-carboxamide]",2700,1410,2570,> 20000,,,3.25e-06,
"CCOc1ccccc1S(=O)(=O)NC(=O)c1cc2ccc(N(C)CC)cc2o1 [Example 5, N-(2-Ethoxyphenyl)sulfonyl-6-[ethyl(methyl)amino]benzofuran-2-carboxamide]",1100,495,520,> 20000,,,8.76e-07,
"CCOc1ccccc1S(=O)(=O)NC(=O)c1cc2ccc(N(C)c3ccccc3)cc2o1 [Example 6, N-(2-Ethoxyphenyl)sulfonyl-6-(N-methylanilino)benzofuran-2-carboxamide]",1830,4280,> 20000,> 20000,,,> 2e-05,
CN(c1ccccc1)c1ccc2cc(C(=O)NS(=O)(=O)c3ccccc3)oc2c1 [Example 7],9600,> 20000,> 20000,> 20000,,,> 2e-05,
"CN(c1ccccc1)c1ccc2cc(C(=O)NS(=O)(=O)c3ccccc3Cl)oc2c1 [Example 8, N-(2-Chlorophenyl)sulfonyl-6-(N-methylanilino)benzofuran-2-carboxamide]",5030,4400,> 20000,> 20000,,,> 2e-05,
"CN(c1ccccc1)c1ccc2cc(C(=O)NS(=O)(=O)c3ccccc3-c3ccccc3)oc2c1 [Example 10, 6-(N-Methylanilino)-N-(2-phenylphenyl)sulfonyl-benzofuran-2-carboxamide]",900,1490,13600,,,,,
"CNc1ccc2cc(C(=O)NS(=O)(=O)c3ccccc3-c3ccccc3)oc2c1 [Example 11, 6-(Methylamino)-N-(2-phenylphenyl)sulfonyl-benzofuran-2-carboxamide]",123,205,1930,> 20000,,,2.84e-07,
"CN(C)c1cc(F)c2cc(C(=O)NS(=O)(=O)c3ccccc3-c3ccccc3)oc2c1 [Example 12, N-([1,1′-Biphenyl]-2-sulfonyl)-6-(dimethylamino)-4-fluoro-1-benzofuran-2-carboxamide]",13.3,18.2,61.7,,,,5.72e-08,
"CCCCOc1ccccc1S(=O)(=O)NC(=O)c1cc2ccc(N(C)CCOC)cc2o1 [Example 219, N-(2-butoxybenzene-1-sulfonyl)-6-[(2-methoxyethyl)(methyl)amino]-1-benzofuran-2-carboxamide]",1280,,4060,> 20000,,,6.05e-06,

# Second part, led by results:
IC50 [1] [nM],IC50 [2] [nM],"IC50 ([3]; Homo sapiens, MVLN) [nM]","EC50 [5, 6] [nM]",IC50 [3] [nM],EC50 [5] [nM],SMILES,"EC50 ([4]; Homo sapiens, ZR-75-1, 144 h) [M]",EC50 [4] [M]
12.5,11.6,16.7,> 20000,,,"CCOc1ccccc1S(=O)(=O)NC(=O)c1cc2c(F)cc(N(C)C)cc2o1 [Example 13, 6-(Dimethylamino)-N-(2-ethoxybenzene-1-sulfonyl)-4-fluoro-1-benzofuran-2-carboxamide]",2.28e-08,
112,235,5000,,,,"CN(C)c1ccc2cc(C(=O)NS(=O)(=O)c3ccc(-c4ccccc4)cc3)oc2c1 [Example 15, N-([1,1′-biphenyl]-4-sulfonyl)-6-(dimethylamino)-1-benzofuran-2-carboxamide]",4.28e-06,
137,497,> 20000,,,,"CN(C)c1ccc2cc(C(=O)NS(=O)(=O)c3cccc4c3OCC4)oc2c1 [Example 30, N-(2,3-Dihydro-1-benzofuran-7-sulfonyl)-6-(dimethylamino)-1-benzofuran-2-carboxamide]",,
53,59.1,,> 20000,,,"CN(C)c1ccc2cc(C(=O)NS(=O)(=O)c3ccccc3OC(F)(F)F)oc2c1 [Example 31, 6-(Dimethylamino)-N-[2-(trifluoromethoxy)benzene-1-sulfonyl]-1-benzofuran-2-carboxamide]",8.14e-08,
224,423,,> 20000,,,"Cc1ccccc1S(=O)(=O)NC(=O)c1cc2ccc(N(C)C)cc2o1 [Example 32, 6-(Dimethylamino)-N-(2-methylbenzene-1-sulfonyl)-1-benzofuran-2-carboxamide]",3.78e-07,
2720,> 20000,,> 20000,,,"CN(C)c1ccc2cc(C(=O)NS(=O)(=O)c3ccccc3C#N)oc2c1 [Example 33, N-(2-Cyanobenzene-1-sulfonyl)-6-(dimethylamino)-1-benzofuran-2-carboxamide]",6.26e-06,
417,504,,> 20000,,,"CN(C)c1ccc2cc(C(=O)NS(=O)(=O)c3ccccc3F)oc2c1 [Example 34, 6-(Dimethylamino)-N-(2-fluorobenzene-1-sulfonyl)-1-benzofuran-2-carboxamide]",5.78e-07,
310,450,785,> 20000,,,"CN(C)c1ccc2cc(C(=O)NS(=O)(=O)c3ccccc3-c3ccccc3)sc2c1 [Example 48, N-([1,1′-Biphenyl]-2-sulfonyl)-6-(dimethylamino)-1-benzothiophene-2-carboxamide]",,
48.8,55.4,209,,,,"Cc1cc(Cl)c2cccc(S(=O)(=O)NC(=O)c3cc4ccc(N(C)C)cc4o3)c2n1 [Example 83, N-(4-Chloro-2-methylquinoline-8-sulfonyl)-6-(dimethylamino)-1-benzofuran-2-carboxamide]",1.13e-06,
71.2,56.2,62.5,> 20000,,,"COc1cc(C)ccc1S(=O)(=O)NC(=O)c1cc2ccc(N(C)C)cc2o1 [Example 127, 6-(Dimethylamino)-N-(2-methoxy-4-methylbenzene-1-sulfonyl)-1-benzofuran-2-carboxamide]",,
7.91,24,29.1,,,,"CC(C)c1ccc(OCC2CC2)c(S(=O)(=O)NC(=O)c2cc3ccc(N(C)C)cc3o2)c1 [Example 177, N-[2-(cyclopropylmethoxy)-5-isopropyl-phenyl]sulfonyl-6-(dimethylamino)benzofuran-2-carboxamide]",6.97e-08,
5540,,> 20000,> 20000,,,"CN(C)c1cc2oc(C(=O)NS(=O)(=O)c3ccccc3-c3ccccc3)cc2cc1Br [Example 217, N-([1,1′-biphenyl]-2-sulfonyl)-5-bromo-6-(dimethylamino)-1-benzofuran-2-carboxamide]",8.13e-06,
4730,,7900,> 20000,,,"CCOc1ccccc1S(=O)(=O)NC(=O)c1cc2cc(Br)c(N(C)C)cc2o1 [Example 218, 5-Bromo-6-(dimethylamino)-N-(2-ethoxybenzene-1-sulfonyl)-1-benzofuran-2-carboxamide]",8.31e-06,
188,,716,> 20000,,,"CCNc1ccc2cc(C(=O)NS(=O)(=O)c3cccc4ccc(C)nc34)oc2c1 [Example 220, 6-(Ethylamino)-N-(2-methylquinoline-8-sulfonyl)-1-benzofuran-2-carboxamide]",8.91e-07,
4,,,,14,> 14900,Cc1ccc2cccc(S(=O)(=O)NC(=O)c3cc4c(F)cc(N(C)C)cc4o3)c2n1 [Example 227],,6.85e-08
